Read-outs that look alike come from different tables or passages of the source.
Assays:
[1] = system: GSK3β; details: 12 hours
Method: FIGS. 2A and 2B. […] Cell lysates were prepared and subjected to WB analysis with specific anti-phospho-GSK3β (Ser9) and total GSK3β antibodies. […] WB results are representative of three independent experiments.
WB results are representative of three independent experiments.

[2] = system: Murine neuronal stem cells; assay: Murine neuronal stem cell differentiation (MAP2, total tau, phospho-synapsin I); format: cell-based, mouse; details: 10 mM, 4 days; for difference in MAP2, phospho-synapsin I and total tau immunofluorescence and WB between Li2CO3, LiCl and L-proline: murine neuronal stem cells, P>0.05
Method: FIGS. 6A-6F. […] These cells were then permeabilized, washed and stained with mouse anti-MAP2 monoclonal antibody (EMD Millipore) or mouse anti-total tau (tau46) antibody overnight at 4° C. […] Confocal images were taken by Olympus fluoview FV1000 laser scanning confocal microscope. […] DAPI staining (Life Technologies) was used to detect nuclear DNA. Confocal images were taken by Olympus Fluoview™ FV1000 laser scanning confocal microscope (FIG. 17A). […] The band density ratios of MAP2 to β-actin, total tau to β-actin, and phospho-synapsin I to β-actin are presented as mean±S.D (FIGS. 17B-1, 17B-2, and 17B-3, respectively).

[3] = system: N2a cells; assay: Neuronal cell differentiation of N2a cells (β-tubulin III, phospho-synapsin I); format: cell-based, mouse; details: 10 mM, 24 hours; for difference in β-tubulin III and phospho-synapsin I immunofluorescence and WB between Li2CO3, LiCl and L-proline: P>0.05
Method: FIGS. 5A-5C. […] These cells were then permeabilized with 0.05% Triton X-100 for 5 minutes, washed and stained with mouse anti-β-tubulin III monoclonal antibody ([…]™) and rabbit anti-phospho-Synapsin I (Ser^62, Ser^67) polyclonal antibody (EMD Millipore) overnight at 4° C. […] Confocal images were taken by Olympus fluoview FV1000 laser scanning confocal microscope (Tokyo, Japan).
These cells were then permeabilized with 0.05% Triton X-100 for 5 min, washed, and stained with mouse anti-β-tubulin III monoclonal antibody ([…]™) and rabbit anti-phospho-synapsin I (Ser^62, Ser^67) polyclonal antibody (EMD Millipore) overnight at 4° C. […] Confocal images were taken by Olympus Fluoview™ FV1000 laser scanning confocal microscope (Tokyo, Japan) (FIG. 5A).

[4] = system: GSK3β; assay: GSK3β phosphorylation Western blot in human renal proximal tubule (HRPT) cells; format: cell-based; details: 0 to 30 mM, 12 hours
[5] = system: Human neural stem cells (H9-Derived); assay: Human neuronal stem cell differentiation (MAP2, GFAP); format: cell-based; details: 10 mM, 14 days; for difference in MAP2 and GFAP immunofluorescence and WB between Li2CO3, LiCl and L-proline: human neural stem cells, P>0.05
From the text: Human neural stem cells (H9-Derived) were obtained from Life technologies and cultured with StemPro® NSC SFM media. […] DAPI was used to detect nuclear DNA. Confocal images were taken by Olympus Fluoview™ FV1000 laser scanning confocal microscope (FIG. 18A).

[6] = system: Mouse primary microglial cells; assay: Autophagy (LC3B staining) in mouse primary microglial cells; format: cell-based; details: 10 mM, 18 hours; for difference in fluorescence intensity of autophagosomes and cytosol versus Li2CO3: P>0.05; for autophagy (LC3B fluorescence intensity of autophagosomes and cytosol): vs PBS control
From the text: FIG. 8. […] The fluorescence intensity of the autophagosomes and the cytosol were quantified using SLIDEBOOK™ digital microscopy software.
The fluorescence intensity of the autophagosomes and the cytosol were quantified using Slidebook™ digital microscopy software (mean±SD) (FIG. 19).

[7] = system: β-amyloid pathology in Tg2576 mice; details: diet 8 weeks, lithium 2.25 mmol/kg/day, Li2CO3 vs control NIH31 diet
Method: All mice received normal drinking water ad libitum. […] Mouse brain tissue sections and homogenates were prepared from each mouse after treatment. Half-brain coronal sections were analyzed by Aβ antibody 4G8 staining (FIG. 14A). Percentage of 4G8 positive plaques (mean±SD) was quantified by image analysis (28, 29) (FIG. 14B). Total soluble and insoluble Aβ40,42 peptides from homogenates were analyzed by ELISA, and represented as picograms of Aβ peptides per mg of total protein (FIG. 14C).

[8] = system: primary microglial cells
Method: FIGS. 4A-4C. […] Data are represented as mean percentage of CD40 expressing cells (±SD). […] Microglial cell culture supernatants were collected and subjected to cytokine ELISA as indicated. Data were represented as mean pg of TNFα or IL-12p70 per mg of total cellular protein (±SD). […] Cellular supernatants and lysates were analyzed for extracellular (top panel) and cell-associated (bottom panel) FITC-Aβ42 using a fluorometer. Data are represented as the relative fold of mean fluorescence change (mean±SD), calculated as the mean fluorescence for each sample at 37° C. divided by mean fluorescence at 4° C.
Data are represented as mean percentage of CD40-expressing cells (±SD) (FIG. 4A). […] Microglial cell culture supernatants were collected and subjected to cytokine ELISA as indicated. Data are represented as mean pg of TNFα or IL-12p70 per mg of total cellular protein (±SD) (FIG. 4B). […] Cellular supernatants and lysates were analyzed for extracellular (top panel) and cell-associated (bottom panel) FITC-Aβ42 using a fluorometer (FIG. 4C). Data are represented as the relative fold of mean fluorescence change (mean±SD), calculated as the mean fluorescence for each sample at 37° C. divided by mean fluorescence at 4° C.

[9] = system: Aβ40,42 peptides; details: N2a/APPwt cells, LISPRO 0, 2.5, 5 and 10 mM, 12 h
From the text: (§1) FIGS. 1A and 1B. […] The cell lysates were routinely prepared from these cells for Western blot (WB) analysis.

[10] = system: Notch processing; details: N2a/APPwt/Notch-ΔE cells, 0, 2.5, 5 and 10 mM, 5 hours, compared to DFK-167
From the text: as §1

[11] = system: primary microglia isolated from 3XTg-AD mice; details: microglia from older 3XTg-AD mice treated at minimum dose, vs Li2CO3 or control diet
From the text: The inventors will fully examine microglial pro-inflammatory MAPK, NF-kB and CD40 signaling pathways, cytokine secretion, Aβ phagocytosis capacity, markers of M1 or M2 phenotype and microglial autophagy (IMPase) ex vivo via immunohistochemistry, WB, RT-PCR and Flow analysis in primary microglia isolated from these mice. These methods and assays have been well established as previously published (56, 73, 75). The culturing of primary microglial cells from young and aged mice has been routinely conducted (28, 29, 73).

[12] = system: cytokines and sCD40L; details: Tg2576 mice, diet 8 weeks, 2.25 mmol/kg/day
From the text: In addition, spleens from these mice were isolated and splenocytes cultured as described previously (30).

[13] = system: 3XTg-AD mice; details: chow 4 months
From the text: In order to reduce potential lithium toxicity in the kidney, a saline bottle will be provided in addition to water in all cages. Behavior of animals in these groups and in non-transgenic untreated wild-type mice will be evaluated after treatment, with a established behavioral battery which measures multiple cognitive domains, including open field, novel object recognition, radial arm water maze, and contextual and cued fear conditioning (42-46).
The behavioral battery will include the Balance Beam Task, to evaluate vestibular and general motor function and account for any problems that may occur with the rest of the tests due to motor (and not behavioral/cognitive) impairment.

[14] = system: COX2; assay: COX2 expression Western blot in human renal proximal tubule (HRPT) cells; details: 0 to 30 mM, 12 hours
From the text: These cells were then lysed with cell lysis buffer and analyzed by WB for COX2, total GSK3β and phospho GSK3β (Ser9 and Thr390) expression using anti-COX2 antibody (FIG. 7A, ABCAM®) and anti-phospho- and total GSK3β antibodies (FIG. 7B).
These cells were then lysed with cell lysis buffer and analyzed by WB for COX2, total GSK3β and phospho GSK3β (Ser^9) expressions using anti-COX2 antibody (FIG. 20A, Abcam®) and anti-phospho- and total GSK3β antibodies (FIG. 20B).

[15] = C57BL/6J mice, diet 1 or 2 weeks, lithium 1.125 or 2.25 mmol/kg/day
Method: All mice received normal drinking water ad libitum. Statistical analysis was carried out following ANOVA analysis.

[16] = system: COX2; details: C57BL/6J male mice, diet 1 or 2 weeks, lithium 1.125 and 2.25 mmol/kg/day
From the text: All mice received normal drinking water ad libitum. Kidneys were collected after treatment and analyzed by immunohistochemistry for COX2 expression in the renal medulla (FIG. 21A). In addition, the kidney microsomal proteins were extracted to assess COX2 expression by WB (FIGS. 21B-1, 21B-2). Data are expressed as mean±SD in duplicates from six mice in each group (FIG. 21B-3).

[17] = rats, 4 mEq/kg lithium, oral gavage
[18] = system: COX2; details: Tg2576 mice, diet 8 weeks, lithium 2.25 mmol/kg/day
[19] = system: tau; details: Tg2576 mice, diet 8 weeks, 2.25 mmol/kg/day; LISPRO vs Li2CO3-treated, Li2CO3 vs control NIH31 diet
From the text: (§2) Inhibitory phosphorylation status of GSK3β was detected by anti-phospho-GSK3β (Ser^9) [pGSK3β (Ser^9)] antibody.

[20] = system: GSK3β; details: Tg2576 mice, diet 8 weeks, 2.25 mmol/kg/day; LISPRO vs Li2CO3-treated, Li2CO3 vs control NIH31 diet
From the text: as §2

| Compound | GSK3β activity / GSK3β (Ser9) phosphorylation (WB) [4] | difference in fluorescence intensity of autophagosomes and cytosol versus Li2CO3 [6] | autophagy (LC3B fluorescence intensity of autophagosomes and cytosol) [6] | β-amyloid pathology (4G8 positive Aβ plaques in brain sections) [7] | difference in COX2 expression between Li2CO3 and LiCl [14] | difference in MAP2, phospho-synapsin I and total tau immunofluorescence and WB between Li2CO3, LiCl and L-proline [2] | difference in β-tubulin III and phospho-synapsin I immunofluorescence and WB between Li2CO3, LiCl and L-proline [3] | difference in GSK3β phosphorylation between Li2CO3 and LiCl [4] | difference in MAP2 and GFAP immunofluorescence and WB between Li2CO3, LiCl and L-proline [5] | difference in lithium levels in serum and brain homogenate between Li2CO3- and lithium salicylate-treated mice [15] | also measured |
| --- | --- | --- | --- | --- | --- | --- | --- | --- | --- | --- | --- |
| Lithium Salicylate Proline [LISPRO] | Markedly Reduces GSK3β Activity | no significance difference | significant enhancement of autophagy | Reduces β-Amyloid Pathology | – | – | – | – | – | – | phosphorylated GSK3β (Ser9) level (WB) ([1]; SH-SY5Y cells): notably elevated; phosphorylated GSK3β (Ser9) level (WB) ([1]; primary neuronal cells): notably elevated; murine neuronal stem cell differentiation (MAP2, total tau, phospho-synapsin I) [2]: Enhances Murine Neuronal Stem Cell Differentiation; neuronal cell differentiation (β-tubulin III, phospho-synapsin I) [3]: Markedly Promotes Neuronal Cell Differentiation; human neuronal stem cell differentiation (MAP2, GFAP) [5]: Enhances Human Neuronal Stem Cell Differentiation; microglial phagocytosis of Aβ (FITC-Aβ42, extracellular and cell-associated) ([8]; 10 mM pre-treatment 6 hours, 1 μM aged FITC-Aβ42 1 hour): Enhances Microglial Phagocytosis of Aβ; IFNγ-induced CD40 expression (FACS, percentage of CD40-expressing cells) ([8]; 8 hours co-treatment): significant dose-dependent decreases; pro-inflammatory microglial activation induced by IFNγ and CD40 signaling (FACS, TNFα and IL-12p70 ELISA) ([8]; IFNγ or/and CD40L 1 μg/mL, 8 hours): Inhibits Microglial Activation-Induced by IFNγ and CD40 Signaling; Aβ40, Aβ42 peptides secreted in cell culture media (Aβ generation) [9]: reduces Aβ generation; Notch cleavage (WB, c-myc and cleaved Notch antibodies) [10]: did not inhibit Notch cleavage; microglial M2 phenotype ex vivo [11]: will strongly preserve an M2 phenotype; anti-inflammatory/Th2 responses (cytokine ELISA) ([12]; oral): Promotes Anti-Inflammatory/Th2 Responses; sCD40L in the CNS (brain homogenate ELISA) ([12]; oral): Decreases sCD40L; effectiveness on abolishing AD-like cognitive impairment [13]: more effective than equimolar doses of Li2CO3; long-term and short-term memory impairment (behavioral battery) ([13]; prophylactic and therapeutic groups): will reverse or abolish long-term and short-term memory impairment |
| [Cl-].[Li+] [LiCl] | – | no significance difference | – | – | no notable differences | no significance difference | no notable or significant difference | no notable differences | no significance difference | – | – |
| O=C([O-])c1ccccc1O.[Li+] [lithium salicylate] | – | – | – | – | – | – | – | – | – | no significant difference | kidney microsomal COX2 expression levels versus control NIH31 diet [16]: no significant difference |
| O=C(O)[C@@H]1CCCN1 [L-proline] | no change | – | failed to promote any notable autophagy | – | – | no significance difference | no notable or significant difference | – | no significance difference | – | COX2 expression (WB) [14]: no change |
| O=C([O-])[O-].[Li+].[Li+] [Li2CO3, lithium carbonate] | – | – | significant enhancement of autophagy | no notable or significant difference | no notable differences | no significance difference | no notable or significant difference | no notable differences | no significance difference | no significant difference | brain lithium level profile [17]: spike in brain lithium levels at 24 hours; plasma lithium level at 48 hours [17]: nearly undetectable; plasma lithium pharmacokinetic profile [17]: sharp peak and rapid elimination; kidney (renal) COX2 expression versus control mice [18]: enhanced; cytokine levels in plasma and splenocyte cultured media ([12]; vs control NIH31 diet): no notable or significant difference; ratio of p-tau (Thr231) to total tau in brain homogenates [19]: no notable and significant difference; ratio of pGSK3β (Ser9) to total GSK3β in brain homogenates [20]: no notable and significant difference |
